Some test systems named below: SF-268; HOP-92; TK-10; UACC-257; ACHN; Hs-578T; MOLT-4; MDA-MB-231; MDA-N; OVCAR-3; HT-29; HL-60; RPMI-8226; SF-539; SK-OV-3; SR; OVCAR-8; SK-MEL-5; HOP-62; MDA-MB-435.
Common to all, as to assay: growth of human tumour cells (NCI), 48 h

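Interpolation was linear, between the two tested concentrations surrounding the appropriate level; five concentrations were tested over 48 hours in 96-well plates. The concentration for 50% growth inhibition is given as GI50.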 Active and inactive are the calls of the source. No stated cut-off is given here; in the data, active = GI50 up to about 1.1 µM and inactive = higher. Where only a bound is given, the exact number is not on record here.

Take `O=C(O/C=C\OC1CCCC1(c1ccccc1)c1ccccc1)c1ccccc1` (configuration not stated): the GI50 with SF-268 is 4.05 µM (inactive); in the assay with HOP-92, 2.07 µM (inactive); in the assay on TK-10 it was 5.01 µM (inactive); with UACC-257, 15.8 µM (inactive); with ACHN, 4.1 µM (inactive); with Hs-578T, 7.05 µM (inactive). For the same compound, the GI50 with MOLT-4 is 4.29 µM (inactive); with MDA-MB-231 it was 2.51 µM (inactive); in the assay with MDA-N it was 3.47 µM (inactive); in the assay with OVCAR-3, 9.2 µM (inactive); with HT-29 it was 3.44 µM (inactive); in the assay with HL-60 it was 1.84 µM (inactive). Also, the GI50 with RPMI-8226 is 2.61 µM (inactive); with SF-539, 3.66 µM (inactive); with SK-OV-3, 16.5 µM (inactive); with SR, 2.17 µM (inactive); in the assay with OVCAR-8, 3 µM (inactive); in the assay with SK-MEL-5, 10.8 µM (inactive). The GI50 in the assay on HOP-62 is 18.8 µM (inactive).

Consider `CC(=O)C(C(C)=O)=C1CCCC(O)O1` (configuration not stated), for which the GI50 with SF-268 was > 100 µM (inactive); with TK-10, > 100 µM (inactive); in the assay on MDA-MB-435 it was > 100 µM (inactive); in the assay with UACC-257 it was > 100 µM (inactive); in the assay with ACHN, > 100 µM (inactive); in the assay with Hs-578T it was 47.4 µM (inactive). Further, the GI50 with MOLT-4, in the assay on MDA-MB-231, in the assay on HT-29, with HL-60, in the assay on RPMI-8226 and with SF-539 was > 100 µM (inactive) each time. Also, the GI50 in the assay on SK-OV-3 was > 100 µM (inactive); in the assay on SR it was 62.2 µM (inactive); in the assay on OVCAR-8 it was > 100 µM (inactive); with SK-MEL-5 it was > 100 µM (inactive); in the assay with HOP-62 it was > 100 µM (inactive).

`CC(=O)OCC1OC(n2c(-c3ccccc3)c(/N=N/c3ccc(C)cc3)c(C)c(C#N)c2=S)C(OC(C)=O)C(OC(C)=O)C1OC(C)=O` (configuration not stated): the GI50 in the assay with SF-268 is 9.04 µM (inactive); in the assay with HOP-92 it was 0.0257 µM (active); in the assay on TK-10, 23.6 µM (inactive); in the assay with MDA-MB-435, 9.06 µM (inactive); in the assay on UACC-257, 32.1 µM (inactive); in the assay with ACHN it was > 100 µM (inactive). Also, the GI50 was 3.67 µM (inactive) with MOLT-4; 17.7 µM (inactive) in the assay on MDA-MB-231; 7.36 µM (inactive) in the assay with MDA-N; 19.7 µM (inactive) in the assay on OVCAR-3; 12.8 µM (inactive) with HT-29; 2.82 µM (inactive) in the assay on HL-60. The GI50 in the assay on RPMI-8226 is 8 µM (inactive); in the assay on SR it was 8.99 µM (inactive); in the assay on HOP-62 it was 18.7 µM (inactive).

Turning to `CC(C)(C)c1cc(C(=O)/C=C/C=C/c2ccccc2)cc(C(C)(C)C)c1O`, the GI50 is 25.2 µM (inactive) with SF-268; 42.2 µM (inactive) with HOP-92; 19.5 µM (inactive) in the assay with TK-10; 11.2 µM (inactive) in the assay on MDA-MB-435; 6.53 µM (inactive) with UACC-257; 29.2 µM (inactive) in the assay on ACHN. Besides, the GI50 was 25.7 µM (inactive) in the assay on Hs-578T; 12.8 µM (inactive) in the assay with MOLT-4; 19.4 µM (inactive) in the assay on MDA-MB-231; 27.4 µM (inactive) with OVCAR-3; 22.9 µM (inactive) in the assay with HT-29; 1.55 µM (inactive) in the assay with HL-60. Besides, the GI50 was 6.97 µM (inactive) with RPMI-8226; 14.5 µM (inactive) in the assay on SF-539; 31.8 µM (inactive) with SK-OV-3; 3.24 µM (inactive) with SR; 19.5 µM (inactive) in the assay with OVCAR-8; 11.3 µM (inactive) in the assay on SK-MEL-5. In addition, the GI50 in the assay on HOP-62 is 41.2 µM (inactive).

As to `COC(=O)/C=C/c1ccccc1N=[S@](C)(=O)c1ccc(C)cc1`, the GI50 with SF-268 was 29.4 µM (inactive); in the assay on HOP-92, 35 µM (inactive); in the assay on TK-10 it was 22.4 µM (inactive); in the assay on MDA-MB-435, 3.54 µM (inactive); in the assay with UACC-257 it was 8.85 µM (inactive); with ACHN it was 32.6 µM (inactive). Moreover, the GI50 is 18.7 µM (inactive) in the assay on Hs-578T; 19.8 µM (inactive) in the assay with MOLT-4; 23.8 µM (inactive) in the assay on MDA-MB-231; 14.6 µM (inactive) in the assay with OVCAR-3; 7.93 µM (inactive) in the assay with HT-29; 2.32 µM (inactive) in the assay on HL-60. Moreover, the GI50 in the assay on RPMI-8226 is 18 µM (inactive); in the assay with SF-539, 21.8 µM (inactive); in the assay on SK-OV-3, 30.3 µM (inactive); with SR it was 3.49 µM (inactive); with OVCAR-8, 28.5 µM (inactive); with SK-MEL-5, 5.62 µM (inactive). The GI50 with HOP-62 is 24.2 µM (inactive).

As to `COc1ccc2oc(=N)c(C(=O)Nc3ccccn3)cc2c1`, the GI50 was > 100 µM (inactive) in the assay on SF-268; > 100 µM (inactive) with HOP-92; > 100 µM (inactive) with MDA-MB-435; > 100 µM (inactive) in the assay on UACC-257; 76 µM (inactive) in the assay with ACHN; > 100 µM (inactive) in the assay with Hs-578T. For the same compound, the GI50 in the assay with MOLT-4, with MDA-MB-231, in the assay on OVCAR-3, with HT-29, in the assay on HL-60 and in the assay with RPMI-8226 was > 100 µM (inactive) each time. Moreover, the GI50 in the assay on SK-OV-3, in the assay on SR, with OVCAR-8, in the assay with SK-MEL-5 and with HOP-62 was > 100 µM (inactive) each time.

As to `CC(C)NC(=O)N(Nc1ccccc1)C(C)(C)C`, the GI50 in the assay with HOP-92, with TK-10, in the assay on UACC-257, with ACHN, with Hs-578T and with MOLT-4 was > 100 µM (inactive) throughout. Besides, the GI50 was > 100 µM (inactive) in the assay with MDA-MB-231; > 100 µM (inactive) with MDA-N; > 100 µM (inactive) with OVCAR-3; > 100 µM (inactive) with HT-29; 37.2 µM (inactive) in the assay with HL-60; > 100 µM (inactive) in the assay on SF-539. In addition, the GI50 in the assay with SK-OV-3, in the assay on SR, in the assay with OVCAR-8, with SK-MEL-5 and with HOP-62 was > 100 µM (inactive) throughout.

Regarding `COc1nc2c(c(=O)[nH]1)N=C(c1ccc(Cl)cc1)CC(c1ccccc1)N2` (configuration not stated), the GI50 was 24.1 µM (inactive) with HOP-92; 34 µM (inactive) in the assay with MDA-MB-435; 36.8 µM (inactive) in the assay on UACC-257; 23.1 µM (inactive) in the assay with ACHN; 35.6 µM (inactive) with MOLT-4; 23.8 µM (inactive) in the assay on MDA-MB-231. Moreover, the GI50 was 31 µM (inactive) in the assay on MDA-N; 37.8 µM (inactive) in the assay on OVCAR-3; 34.5 µM (inactive) with HT-29; 28.4 µM (inactive) in the assay on RPMI-8226; 21.6 µM (inactive) in the assay with SF-539; 61.4 µM (inactive) in the assay on SR. For the same compound, the figures for the GI50 in the assay with OVCAR-8, with SK-MEL-5 and with HOP-62 were 21.2 µM (inactive), 17.6 µM (inactive) and 53.6 µM (inactive), respectively.

As to `CCCCSC1=N/C(=C\c2ccc(N(C)C)cc2)C(NN)=N1`, the GI50 in the assay on SF-268, with HOP-92, in the assay with TK-10, in the assay on MDA-MB-435, in the assay with UACC-257 and in the assay with ACHN was > 100 µM (inactive) throughout. For the same compound, the GI50 in the assay with Hs-578T, in the assay with MOLT-4, with MDA-MB-231, in the assay on MDA-N, in the assay on OVCAR-3 and in the assay on HT-29 was > 100 µM (inactive) in each case. For the same compound, the GI50 in the assay with HL-60, in the assay with RPMI-8226, in the assay on SK-OV-3, with OVCAR-8 and in the assay on HOP-62 was > 100 µM (inactive) in each case.

In the case of `N#CC1(C#N)C2C=CC(C3CC=CC32)C1(C#N)C#N` (configuration not stated), the GI50 is 11.2 µM (inactive) with SF-268; 4.27 µM (inactive) with HOP-92; 2 µM (inactive) in the assay on TK-10; 7.16 µM (inactive) in the assay on MDA-MB-435; 12.7 µM (inactive) with UACC-257; 5.12 µM (inactive) in the assay with ACHN. Moreover, the GI50 is 17.9 µM (inactive) with Hs-578T; 1.48 µM (inactive) with MOLT-4; 9.79 µM (inactive) with MDA-MB-231; 2.45 µM (inactive) with OVCAR-3; 9.71 µM (inactive) in the assay on HT-29; 1.12 µM (inactive) in the assay with HL-60. In addition, the GI50 is 2.35 µM (inactive) with RPMI-8226; 9.66 µM (inactive) in the assay with SF-539; 45 µM (inactive) in the assay on SK-OV-3; 2.29 µM (inactive) in the assay on SR; 4.72 µM (inactive) in the assay on OVCAR-8; 7.73 µM (inactive) in the assay with SK-MEL-5. In addition, the GI50 in the assay with HOP-62 is 12.9 µM (inactive).

`C[C@H](NC(=O)C(Cc1ccccc1)(Cc1ccc(O)cn1)NC(=O)c1ccccc1)c1ccccc1` (some centres not stated): the GI50 in the assay with SF-268 is 18.2 µM (inactive); in the assay on HOP-92, 21.3 µM (inactive); with TK-10, 29.9 µM (inactive); in the assay with MDA-MB-435, 16.5 µM (inactive); with UACC-257, 17.7 µM (inactive); with ACHN, 18.9 µM (inactive). In addition, the GI50 in the assay with Hs-578T was 16.7 µM (inactive); in the assay with MOLT-4, 16.9 µM (inactive); with MDA-MB-231 it was 15.6 µM (inactive); in the assay on MDA-N, 15.5 µM (inactive); in the assay with OVCAR-3, 14.7 µM (inactive); in the assay on HT-29, 17.5 µM (inactive). In addition, the GI50 with HL-60 was 25.1 µM (inactive); in the assay with RPMI-8226, 21.1 µM (inactive); with SF-539 it was 19.2 µM (inactive); with OVCAR-8, 20.4 µM (inactive); in the assay with SK-MEL-5, 19.4 µM (inactive); with HOP-62, 17.9 µM (inactive).

Values taken from ChEMBL document CHEMBL1201862, “PubChem BioAssay data set” (2004).
